Targets include HLA A*0201 (Homo sapiens, UniProt P04439, D140Y/D185E/D98H/E176V/E277Q/G131W/G231S/I119V/I121R/I166T/I218V/L300P/L318F/N151K/N90K/P208A/P217A/Q86G/Q94H/R138H/R169H/T345S); HLA B*0702 (Homo sapiens, UniProt P01889); HLA A*2402 (Homo sapiens, UniProt P04439, D101N/D140Y/D185E/E176V/E190D/F33S/G103R/G107R/I119L/I121M/I306V/K335N/L105A/L180Q/L300P/N151K/N90K/Q86E/Q94H/R106L/R138H/R89G/T104I/T345S/V100E/W191G/Y123F); HLA B*4402 (Homo sapiens, UniProt P01889, A223V/A65T/A93T/A95T/D201E/D98Y/E176V/E187L/E204Q/E69K/G107R/H137Y/K202T/L105A/L119I/N104T/N87E/Q56L/Q94N/R106L/R155S/R180D/S101N/S121R/S35A/S48T/T118I/V36M/W191S/Y140D/Y91S); HLA A*0301 (Homo sapiens, UniProt P04439).

Common to all, as to test: HLA class I binding assay (cell-free competition, fluorescence polarization)

Where a SMILES comes first, the peptide text is derived from it. Some results are limits rather than exact numbers.

The source of these data is paper PMC8138313, “Identification, Selection and Immune Assessment of Liver Stage CD8 T Cell Epitopes From Plasmodium falciparum” (Frontiers in Immunology, 2021).

Take `CC[C@H](C)[C@H](NC(=O)[C@H](CC(N)=O)NC(=O)[C@H](CCCCN)NC(=O)[C@H](CCCCN)NC(=O)[C@H](CCCCN)NC(=O)[C@H](CC(C)C)NC(=O)[C@@H](N)Cc1ccccc1)C(=O)N[C@H](C(=O)N[C@@H](CC(C)C)C(=O)O)[C@@H](C)O` (H-FLKKKNITL-OH): the IC50 on HLA A*0201 is 5.34 µM; on HLA B*0702, 25.4 µM.
As for `CC(C)C[C@H](NC(=O)[C@H](Cc1ccccc1)NC(=O)[C@@H]1CCCN1C(=O)[C@@H](N)Cc1c[nH]cn1)C(=O)N[C@@H](CCCCN)C(=O)N[C@@H](CO)C(=O)NCC(=O)N[C@@H](Cc1ccccc1)C(=O)N[C@H](C(=O)N[C@@H](Cc1ccccc1)C(=O)O)[C@@H](C)O` (H-HPFLKSGFTF-OH), the results for the IC50 on HLA A*2402, on HLA B*0702 and on HLA B*4402 were 10.5 µM, 0.226 µM and greater than 1000 µM, respectively.
Turning to `CC[C@H](C)[C@H](NC(=O)[C@H](CO)NC(=O)[C@H](CCCCN)NC(=O)[C@H](CO)NC(=O)[C@H](CC(N)=O)NC(=O)[C@@H](NC(=O)[C@H](CO)NC(=O)[C@H](Cc1ccc(O)cc1)NC(=O)[C@H](CC(C)C)NC(=O)[C@@H](N)CCCCN)[C@@H](C)CC)C(=O)O` (H-KLYSINSKSI-OH), the values for the IC50 on HLA A*0201 and at HLA B*0702 were 57.7 µM and 225 µM, respectively.
On to `CC[C@H](C)[C@H](NC(=O)[C@@H](N)CO)C(=O)N[C@@H](C)C(=O)N[C@@H](CO)C(=O)N[C@@H](CCCCN)C(=O)N[C@@H](CC(N)=O)C(=O)N[C@@H](CC(C)C)C(=O)N[C@@H](CCSC)C(=O)N[C@@H](Cc1c[nH]c2ccccc12)C(=O)N[C@H](C(=O)O)C(C)C` (H-SIASKNLMWV-OH), for which the figures for the IC50 at HLA A*0201, at HLA B*0702 and at HLA A*0301 were 284 µM, greater than 1000 µM and greater than 1000 µM, respectively.
Turning to `CSCC[C@H](NC(=O)[C@H](CCC(=O)O)NC(=O)[C@@H](N)[C@@H](C)O)C(=O)N[C@@H](Cc1ccccc1)C(=O)N[C@@H](CCCCN)C(=O)N[C@@H](CC(C)C)C(=O)N[C@@H](CCCNC(=N)N)C(=O)N[C@@H](CC(C)C)C(=O)N[C@@H](CC(N)=O)C(=O)N[C@@H](CC(C)C)C(=O)O` (H-TEMFKLRLNL-OH), the IC50 at HLA A*2402 is 58.2 µM; on HLA B*0702, greater than 1000 µM; on HLA B*4402 it was 54.8 µM.
`CC[C@H](C)[C@H](NC(=O)[C@@H]1CCCN1C(=O)[C@@H](N)Cc1ccc(O)cc1)C(=O)N[C@@H](CCC(=O)O)C(=O)N[C@@H](CCCCN)C(=O)N[C@@H](CC(C)C)C(=O)NCC(=O)N[C@@H](Cc1c[nH]cn1)C(=O)N[C@H](C(=O)O)C(C)C` (H-YPIEKLGHV-OH) came in with an IC50 at HLA B*0702 of 0.257 µM.
Still for that read-out and setting: for `CC(C)C[C@H](NC(=O)[C@H](C)NC(=O)[C@H](CC(=O)O)NC(=O)[C@H](Cc1ccccc1)NC(=O)[C@@H](NC(=O)[C@H](CC(N)=O)NC(=O)[C@@H]1CCCN1C(=O)[C@@H]1CCCN1C(=O)[C@@H](N)Cc1ccccc1)[C@@H](C)O)C(=O)O` [FPPNTFDAL] (H-FPPNTFDAL-OH) the value was 2.72 µM; for `CC(C)C[C@H](NC(=O)[C@H](C)NC(=O)[C@H](CO)NC(=O)[C@@H](NC(=O)[C@H](CCCCN)NC(=O)[C@H](CC(=O)O)NC(=O)[C@H](CCCNC(=N)N)NC(=O)[C@H](CS)NC(=O)[C@@H](N)Cc1c[nH]cn1)[C@@H](C)O)C(=O)O` [HCRDKTSAL] (H-HCRDKTSAL-OH), 28.6 µM.

Usually IC50 stands for the concentration that inhibits the measured activity by half. Higher therefore signals a need for much substance.
